Source: PubChem BioAssay AID330 (DTP/NCI, 2004)
Where “and” joins values, the source holds several entries; their conditions need not be identical. Equal entries are not always repeated. Inconclusive results and toxic doses are left out. Rule for the calls: active = survival T/C of 150% or more; inactive = T/C below 125% in these data.

System: P388 leukemia ip, CD2F1 mice, survival T/C
Assay: NCI In Vivo Anticancer Drug Screen. Data for tumor model P388 Leukemia (intraperitoneal) in CD2F1 (CDF1) mice
Conditions: endpoint: median survival time, higher = longer survival
Summary of the method: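 Mice carrying the transplanted tumor received test compound or vehicle. Survival was recorded in each group, and the value is the treated-group measurement divided by that of the vehicle-treated control group.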

[1] = dose: 25.0 mg/kg/injection, schedule: Q01DX005 (ip), vehicle: Klucel (hydroxypropylcellulose) (HPC)
[2] = dose: 100.0 mg/kg/injection, schedule: Q04DX003 (ip), vehicle: saline with Tween-80
[3] = dose: 200.0 mg/kg/injection, schedule: Q04DX003 (ip), vehicle: saline with Tween-80
[4] = dose: 400.0 mg/kg/injection, schedule: Q04DX003 (ip), vehicle: saline with Tween-80
[5] = dose: 60.0 mg/kg/injection, schedule: Q01DX005 (ip), vehicle: Klucel (hydroxypropylcellulose) (HPC)
[6] = dose: 120.0 mg/kg/injection, schedule: Q01DX005 (ip), vehicle: Klucel (hydroxypropylcellulose) (HPC)
[7] = dose: 240.0 mg/kg/injection, schedule: Q01DX005 (ip), vehicle: Klucel (hydroxypropylcellulose) (HPC)
[8] = dose: 100.0 mg/kg/injection, schedule: Q01DX009 (ip), vehicle: Klucel (hydroxypropylcellulose) (HPC)
[9] = dose: 200.0 mg/kg/injection, schedule: Q01DX009 (ip), vehicle: Klucel (hydroxypropylcellulose) (HPC)
[10] = dose: 25.0 mg/kg/injection, schedule: Q01DX009 (ip), vehicle: other
[11] = dose: 50.0 mg/kg/injection, schedule: Q01DX009 (ip), vehicle: other
[12] = dose: 50.0 mg/kg/injection, schedule: Q01DX009 (ip), vehicle: saline with Tween-80
[13] = dose: 100.0 mg/kg/injection, schedule: Q01DX009 (ip), vehicle: saline with Tween-80
[14] = dose: 50.0 mg/kg/injection, schedule: Q01DX005 (ip), vehicle: Klucel (hydroxypropylcellulose) (HPC)
[15] = dose: 100.0 mg/kg/injection, schedule: Q01DX005 (ip), vehicle: Klucel (hydroxypropylcellulose) (HPC)
[16] = dose: 60.0 mg/kg/injection, schedule: Q01DX005 (ip), vehicle: saline with Tween-80
[17] = dose: 120.0 mg/kg/injection, schedule: Q01DX005 (ip), vehicle: saline with Tween-80
[18] = dose: 240.0 mg/kg/injection, schedule: Q01DX005 (ip), vehicle: saline with Tween-80
[19] = dose: 50.0 mg/kg/injection, schedule: Q01DX009 (ip), vehicle: Klucel (hydroxypropylcellulose) (HPC)
[20] = dose: 25.0 mg/kg/injection, schedule: Q01DX009 (ip), vehicle: saline with Tween-80

Measured: T/C

COCc1cnc2nc(N)nc(N)c2n1
inactive: dose: 0.39 mg/kg/injection, schedule: Q01DX009 (ip), vehicle: distilled water + Tween-80 99 % of control | dose: 0.78 mg/kg/injection, schedule: Q01DX009 (ip), vehicle: distilled water + Tween-80 99 % of control | dose: 1.56 mg/kg/injection, schedule: Q01DX009 (ip), vehicle: distilled water + Tween-80 104 % of control | dose: 3.13 mg/kg/injection, schedule: Q01DX009 (ip), vehicle: distilled water + Tween-80 110 % of control

COCCCOC(=O)NCCCCC([NH-])C(=O)O.COCCCOC(=O)NCCCCC([NH-])C(=O)O.[Cu+2] (configuration not stated)
inactive: dose: 6.25 mg/kg/injection, schedule: Q01DX005 (ip), vehicle: Klucel (hydroxypropylcellulose) (HPC) 100 % of control | dose: 12.5 mg/kg/injection, schedule: Q01DX005 (ip), vehicle: Klucel (hydroxypropylcellulose) (HPC) 87 % of control | [1] 89 % of control

CC1(C)N=C(N)N=C(N)N1NC(=O)c1cccc(Cl)c1
inactive: dose: 50.0 mg/kg/injection, schedule: Q04DX003 (ip), vehicle: saline 110 % of control | dose: 100.0 mg/kg/injection, schedule: Q04DX003 (ip), vehicle: saline 100 % of control | dose: 200.0 mg/kg/injection, schedule: Q04DX003 (ip), vehicle: saline 105 % of control

Oc1ccc2ccccc2c1N=Nc1ccc(F)cc1
inactive: [2] 100 % of control | [3] 100 % of control | [4] 104 % of control

O=C(NC1C=Nc2ccc(Cl)cc2NC1=O)c1ccc(Cl)cc1 (configuration not stated)
inactive: [5] 91 % of control | [6] 91 % of control | [7] 93 % of control

Nc1cc(Cl)ccc1-c1ccccc1
inactive: [8] 95 % of control | [9] 92 % of control

CCOC(=O)N1CCc2cc(OC)c(OC)cc2C1(O)Cc1cc(OC)c(OC)cc1Br (configuration not stated)
inactive: [10] 109 % of control | [11] 106 % of control | dose: 100.0 mg/kg/injection, schedule: Q01DX009 (ip), vehicle: other 103 % of control | dose: 200.0 mg/kg/injection, schedule: Q01DX009 (ip), vehicle: other 113 % of control | dose: 400.0 mg/kg/injection, schedule: Q01DX009 (ip), vehicle: other 113 % of control

O=C(O)c1ccnc2c1ccc1ccccc12
inactive: dose: 100.0 mg/kg/injection, schedule: Q04DX002 (ip), vehicle: Klucel (hydroxypropylcellulose) (HPC) 103 % of control | dose: 200.0 mg/kg/injection, schedule: Q04DX002 (ip), vehicle: Klucel (hydroxypropylcellulose) (HPC) 94 % of control

CCS/C(C#N)=C/c1ccccc1Cl
inactive: [12] 103 % of control | [13] 112 % of control

CN(C)C1=NC(NC2CCCCC2)(N(C)C)OC(N(C)C)=N1 (configuration not stated)
inactive: [1] 105 % of control | [14] 96 % of control | [15] 100 % of control

FC(F)(F)c1cc([C@H]2[C@@H]3CCCCN32)c2cccc(C(F)(F)F)c2n1 (some centres not stated)
inactive: dose: 12.5 mg/kg/injection, schedule: Q04DX003 (ip), vehicle: distilled water + Tween-80 93 % of control | dose: 25.0 mg/kg/injection, schedule: Q04DX003 (ip), vehicle: distilled water + Tween-80 97 % of control | dose: 50.0 mg/kg/injection, schedule: Q04DX003 (ip), vehicle: distilled water + Tween-80 96 % of control | dose: 100.0 mg/kg/injection, schedule: Q04DX003 (ip), vehicle: distilled water + Tween-80 95 % of control | dose: 200.0 mg/kg/injection, schedule: Q04DX003 (ip), vehicle: distilled water + Tween-80 99 % of control | dose: 400.0 mg/kg/injection, schedule: Q04DX003 (ip), vehicle: distilled water + Tween-80 103 % of control

[Se]=[Nb]=[Se]
inactive: dose: 60.0 mg/kg/injection, schedule: Q01DX005 (ip), vehicle: acid diluted with saline 89 % of control | dose: 120.0 mg/kg/injection, schedule: Q01DX005 (ip), vehicle: acid diluted with saline 93 % of control | dose: 240.0 mg/kg/injection, schedule: Q01DX005 (ip), vehicle: acid diluted with saline 90 % of control

C=CCN(CC=C)/N=N/c1nc[nH]c1C(N)=O
inactive: dose: 50.0 mg/kg/injection, schedule: Q01DX001 (ip), vehicle: saline with Tween-80 104 % of control | dose: 100.0 mg/kg/injection, schedule: Q01DX001 (ip), vehicle: saline with Tween-80 90 % of control | dose: 200.0 mg/kg/injection, schedule: Q01DX001 (ip), vehicle: saline with Tween-80 95 % of control

O=C(CC1(O)C(=O)Nc2ccccc21)c1ccc([N+](=O)[O-])cc1 (configuration not stated)
inactive: [16] 102 % of control | [17] 95 % of control | [18] 100 % of control

O=C(/C=C/c1ccccc1)c1ccccc1
inactive: dose: 12.5 mg/kg/injection, schedule: Q01DX009 (ip), vehicle: Klucel (hydroxypropylcellulose) (HPC) 100 % of control | dose: 25.0 mg/kg/injection, schedule: Q01DX009 (ip), vehicle: Klucel (hydroxypropylcellulose) (HPC) 105 % of control | [19] 100 % of control | [8] 108 % of control

CC1=C(/C=C/c2ccc(N(C)C)cc2)C(C)C(c2ccc(N(C)C)cc2)CC1=O (configuration not stated)
inactive: dose: 25.0 mg/kg/injection, schedule: Q01DX001 (ip), vehicle: Klucel (hydroxypropylcellulose) (HPC) 88 % of control | dose: 50.0 mg/kg/injection, schedule: Q01DX001 (ip), vehicle: Klucel (hydroxypropylcellulose) (HPC) 94 % of control | dose: 100.0 mg/kg/injection, schedule: Q01DX001 (ip), vehicle: Klucel (hydroxypropylcellulose) (HPC) 93 % of control

Nc1ccc(O)c2c1C(=O)c1c(O)ccc(N)c1C2=O
inactive: [14] 100 % of control | [15] 105 % of control | dose: 200.0 mg/kg/injection, schedule: Q01DX005 (ip), vehicle: Klucel (hydroxypropylcellulose) (HPC) 87 % of control

O=[N+]([O-])c1ccc(NC(c2ccccc2)S(=O)(=O)O)cc1 (configuration not stated)
inactive: dose: 50.0 mg/kg/injection, schedule: Q01DX009 (ip), vehicle: saline 119 % of control | dose: 100.0 mg/kg/injection, schedule: Q01DX009 (ip), vehicle: saline 109 % of control | dose: 200.0 mg/kg/injection, schedule: Q01DX009 (ip), vehicle: saline 123 % of control

O=C(NC(CC1CCC2OCOC2C1)C(=O)O)c1ccccc1 (configuration not stated)
inactive: [16] 111 % of control | [17] 102 % of control | [18] 105 % of control

CCCCCC1c2cc(O)ccc2OC1N1CCOCC1 (configuration not stated)
inactive: dose: 12.5 mg/kg/injection, schedule: Q01DX009 (ip), vehicle: saline with Tween-80 105 % of control | [20] 101 % of control | [12] 113 % of control and 120 % of control | [13] 119 % of control and 124 % of control

CC1SC2(C(=O)Nc3ccc(Cl)cc32)N(c2ccc(Cl)cc2)C1=O (configuration not stated)
inactive: [5] 105 % of control | [6] 105 % of control | [7] 108 % of control

O=C(C(=O)N1CCC(O)CC1)c1c[nH]c2ccccc12
inactive: [19] 98 % of control | [8] 101 % of control | [9] 100 % of control

Cc1cc(C)cc(NCCC#N)c1
inactive: dose: 100.0 mg/kg/injection, schedule: Q04DX003 (ip), vehicle: other 109 % of control | dose: 200.0 mg/kg/injection, schedule: Q04DX003 (ip), vehicle: other 109 % of control

COC(=O)/C=C1/Nc2ccc(Cl)cc2C(=O)NC1=O
inactive: [16] 95 % of control | [17] 93 % of control | [18] 93 % of control

CS(=O)(=O)c1cc(C(F)(F)F)cc([N+](=O)[O-])c1Cl
inactive: [20] 109 % of control | [12] 100 % of control

CN(N=O)P(=O)(Nc1ccccc1)Nc1ccccc1
inactive: dose: 6.25 mg/kg/injection, schedule: Q01DX009 (ip), vehicle: other 100 % of control | [10] 100 % of control | [11] 100 % of control

OC(Cc1nc2ccccc2s1)(C(F)(F)F)C(F)(F)F
inactive: [2] 100 % of control | [3] 95 % of control | [4] 95 % of control

O=C1/C(=c2\c3ccccc3n3c(=O)c4ccccc4nc23)Nc2ccccc21
inactive: [1] 92 % of control | [14] 91 % of control | [15] 91 % of control
